The results in this text go back to patent US7300946B2, “N-(substituted arylmethyl)-4-(disubstituted methyl) piperidines and pyridines” (Bayer CropScience AG, priority 2002, dated 2007).

The subject of the experiment is tobacco budworm (Heliothis virescens [Fabricius]). The experiment in a line: surface-treated diet test against the tobacco budworm. Format: in vivo. As to conditions: tobacco budworm second instar larvae, 0.25 millimoles of candidate insecticide on the surface of the diet, five-day exposure; for Percent Mortality: compared to total number of insects infested; for Percent Growth Inhibition: inhibition of insect weight relative to untreated controls. In outline:
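Wheat germ artificial diet surface-treated with 40 µL of 50 mM DMSO stock diluted 1:7 in 1:1 water/acetone (0.25 millimolar on diet), or sub-multiples for rate tests. One second-instar larva per well, 25° C, 60% RH, 5 days; percent weight inhibition vs DMSO controls and percent mortality.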

As to `O=C(Nc1ccc(Cl)cc1)OC(c1ccc(Cl)cc1Cl)C1CCN(Cc2ccc(Oc3ncccn3)cc2)CC1` (stereo not shown) [Compound 718], the “Percent Mortality” value came to 100% and the “Percent Growth Inhibition” value turned out to be 100%.

Consider `O=C(Nc1cccc(F)c1)OC(c1ccc(Cl)cc1Cl)C1CCN(Cc2ccc(Oc3ncccn3)cc2)CC1` (stereo not shown) [Compound 719], for which the “Percent Mortality” value is 100% and the “Percent Growth Inhibition” value was determined as 100%.

On to `O=C(Nc1cc(F)cc(F)c1)OC(c1ccc(Cl)cc1Cl)C1CCN(Cc2ccc(Oc3ncccn3)cc2)CC1` (stereo not shown) [Compound 720], for which the “Percent Mortality” value is recorded as 100% and the “Percent Growth Inhibition” value is 100%.

With `O=C(Nc1ccc(Cl)cc1)OC(c1ccc(Cl)c(Cl)c1)C1CCN(Cc2ccc(Oc3ncccn3)cc2)CC1` (stereo not shown) [Compound 721], the “Percent Mortality” value amounted to 100% and the “Percent Growth Inhibition” value was 100%.

Take `O=C(Nc1ccc(F)cc1)OC(c1ccc(Cl)c(Cl)c1)C1CCN(Cc2ccc(Oc3ncccn3)cc2)CC1` (stereo not shown) [Compound 722]: the “Percent Mortality” value was 83% and the “Percent Growth Inhibition” value is 100%.

As to `O=C(Nc1cc(F)cc(F)c1)OC(c1ccc(Cl)c(Cl)c1)C1CCN(Cc2ccc(Oc3ncccn3)cc2)CC1` (stereo not shown) [Compound 723], the “Percent Mortality” value came out at 100% and the “Percent Growth Inhibition” value is 100%.

For `O=C(Nc1cccc(C(F)(F)F)c1)OC(c1ccc(Cl)c(Cl)c1)C1CCN(Cc2ccc(Oc3ncccn3)cc2)CC1` (stereo not shown) [Compound 724], the “Percent Mortality” value is reported as 100% and the “Percent Growth Inhibition” value worked out at 100%.

Regarding `O=C(Nc1ccc(C(F)(F)F)cc1)OC(c1ccc(Cl)c(Cl)c1)C1CCN(Cc2ccc(Oc3ncccn3)cc2)CC1` (stereo not shown) [Compound 725], the “Percent Mortality” value was 100% and the “Percent Growth Inhibition” value is 100%.

As for `O=C(Nc1ccc(Cl)cc1)OC(c1cc(Cl)cc(Cl)c1)C1CCN(Cc2ccc(Oc3ncccn3)cc2)CC1` (stereo not shown) [Compound 726], the “Percent Mortality” value is given as 100% and the “Percent Growth Inhibition” value is listed as 100%.

`O=C(Nc1cccc(F)c1)OC(c1cc(Cl)cc(Cl)c1)C1CCN(Cc2ccc(Oc3ncccn3)cc2)CC1` (stereo not shown) [Compound 727]: the “Percent Mortality” value turned out to be 100% and the “Percent Growth Inhibition” value came to 100%.

For `O=C(Nc1cc(F)cc(F)c1)OC(c1cc(Cl)cc(Cl)c1)C1CCN(Cc2ccc(Oc3ncccn3)cc2)CC1` (stereo not shown) [Compound 728], the “Percent Mortality” value was 100% and the “Percent Growth Inhibition” value is given as 100%.

With `O=C(Nc1ccc(Cl)cc1)OC(c1ccc(C(F)(F)F)cc1)C1CCN(Cc2ccc(Oc3ncccn3)cc2)CC1` (stereo not shown) [Compound 729], the “Percent Mortality” value is 100% and the “Percent Growth Inhibition” value was determined as 100%.

In the case of `O=C(Nc1ccc(F)cc1F)OC(c1ccc(C(F)(F)F)cc1)C1CCN(Cc2ccc(Oc3ncccn3)cc2)CC1` (stereo not shown) [Compound 730], the “Percent Mortality” value worked out at 100% and the “Percent Growth Inhibition” value came out at 100%.

With `O=C(Nc1cc(F)cc(F)c1)OC(c1ccc(C(F)(F)F)cc1)C1CCN(Cc2ccc(Oc3ncccn3)cc2)CC1` (stereo not shown) [Compound 731], the “Percent Mortality” value worked out at 100% and the “Percent Growth Inhibition” value was found to be 100%.

Turning to `O=C(Nc1ccc(F)c(F)c1)OC(c1ccc(C(F)(F)F)cc1)C1CCN(Cc2ccc(Oc3ncccn3)cc2)CC1` (stereo not shown) [Compound 732], the “Percent Mortality” value is 100% and the “Percent Growth Inhibition” value is 100%.

Turning to `O=C(Nc1ccc(Cl)cc1)OC(c1ccc(OC(F)(F)F)cc1)C1CCN(Cc2ccc(Oc3ncccn3)cc2)CC1` (stereo not shown) [Compound 733], the “Percent Mortality” value stood at 100% and the “Percent Growth Inhibition” value is reported as 100%.

In the case of `O=C(Nc1cccc(F)c1)OC(c1ccc(OC(F)(F)F)cc1)C1CCN(Cc2ccc(Oc3ncccn3)cc2)CC1` (stereo not shown) [Compound 734], the “Percent Mortality” value was 100% and the “Percent Growth Inhibition” value was 100%.

With `O=C(Nc1cc(F)cc(F)c1)OC(c1ccc(OC(F)(F)F)cc1)C1CCN(Cc2ccc(Oc3ncccn3)cc2)CC1` (stereo not shown) [Compound 735], the “Percent Mortality” value is on record as 100% and the “Percent Growth Inhibition” value was found to be 100%.

For the compound `O=C(Nc1cc(F)cc(F)c1)OC(c1ccc(C(F)(F)F)cc1)C1CCN(Cc2ccc(Oc3cccnn3)cc2)CC1` (stereo not shown) [Compound 736], the “Percent Mortality” value is 100% and the “Percent Growth Inhibition” value is 100%.

Turning to `O=C(Nc1ccc(Cl)cc1)OC(c1ccc(C(F)(F)F)cc1)C1CCN(Cc2ccc(Oc3ccc(Cl)nn3)cc2)CC1` (stereo not shown) [Compound 737], the “Percent Mortality” value is 100% and the “Percent Growth Inhibition” value came to 100%.

In the case of `O=C(Nc1cc(F)cc(F)c1)OC(c1ccc(C(F)(F)F)cc1)C1CCN(Cc2ccc(Oc3ccc(Cl)nn3)cc2)CC1` (stereo not shown) [Compound 738], the “Percent Mortality” value was found to be 100% and the “Percent Growth Inhibition” value was 100%.

On to `O=C(Nc1cc(F)cc(F)c1)OC(c1ccc(C(F)(F)F)cc1)C1CCN(Cc2ccc(Oc3ncncn3)cc2)CC1` (stereo not shown) [Compound 739], for which the “Percent Mortality” value amounted to 0% and the “Percent Growth Inhibition” value came out at 100%.

For the compound `COc1nc(OC)nc(Oc2ccc(CN3CCC(C(OC(=O)Nc4cc(F)cc(F)c4)c4ccc(C(F)(F)F)cc4)CC3)cc2)n1` (stereo not shown) [Compound 740], the “Percent Mortality” value is reported as 100% and the “Percent Growth Inhibition” value was 100%.

For the compound `CCCOc1ccc(C[N+]2([O-])CCC(C(OC(=O)Nc3cc(F)cc(F)c3)c3ccc(C(F)(F)F)cc3)CC2)cc1` (stereo not shown) [Compound 741], the “Percent Mortality” value was determined as 100% and the “Percent Growth Inhibition” value turned out to be 100%.

As to `CCON=Cc1ccc(C[N+]2([O-])CCC(C(OC(=O)Nc3cccc(F)c3)c3ccc(C(F)(F)F)cc3)CC2)cc1` (stereo not shown) [Compound 742], the “Percent Mortality” value was 100% and the “Percent Growth Inhibition” value turned out to be 100%.

`CCON=Cc1ccc(C[N+]2([O-])CCC(C(OC(=O)Nc3cc(F)cc(F)c3)c3ccc(C(F)(F)F)cc3)CC2)cc1` (stereo not shown) [Compound 743]: the “Percent Mortality” value is on record as 100% and the “Percent Growth Inhibition” value is listed as 100%.

In the case of `C#CCON=Cc1ccc(C[N+]2([O-])CCC(C(OC(=O)Nc3cc(F)cc(F)c3)c3ccc(C(F)(F)F)cc3)CC2)cc1` (stereo not shown) [Compound 744], the “Percent Mortality” value worked out at 100% and the “Percent Growth Inhibition” value is 100%.

On to `CC(C)OC(=O)c1ccc(C[N+]2([O-])CCC(C(OC(=O)Nc3ccc(Cl)cc3)c3ccc(C(F)(F)F)cc3)CC2)cc1` (stereo not shown) [Compound 745], for which the “Percent Mortality” value amounted to 100% and the “Percent Growth Inhibition” value is 100%.

As to `CC(C)OC(=O)Nc1ccc(C[N+]2([O-])CCC(C(OC(=O)Nc3cc(F)cc(F)c3)c3ccc(C(F)(F)F)cc3)CC2)cc1` (stereo not shown) [Compound 746], the “Percent Mortality” value was 100% and the “Percent Growth Inhibition” value worked out at 100%.

As to `O=C(Nc1ccc(Cl)cc1)OC(c1ccc(C(F)(F)F)cc1)C1CC[N+]([O-])(Cc2ccc(-c3ccccc3)cc2)CC1` (stereo not shown) [Compound 747], the “Percent Mortality” value is given as 100% and the “Percent Growth Inhibition” value is 100%.

As for `O=C(Nc1cc(F)cc(F)c1)OC(c1ccc(C(F)(F)F)cc1)C1CC[N+]([O-])(Cc2ccc(-c3ccccc3)cc2)CC1` (stereo not shown) [Compound 748], the “Percent Mortality” value turned out to be 100% and the “Percent Growth Inhibition” value came to 100%.

Consider `O=C(Nc1cc(F)cc(F)c1)OC(c1ccc(C(F)(F)F)cc1)C1CC[N+]([O-])(Cc2ccc(Oc3ccccc3)cc2)CC1` (stereo not shown) [Compound 749], for which the “Percent Mortality” value is recorded as 100% and the “Percent Growth Inhibition” value was 100%.
